{
  "source": "patent US9255295B2",
  "about": "“Method for evaluating the sensitizing potential of a test compound” (IMMUNOSEARCH, priority 2010, dated 2016)",
  "key": {"[1]": {"tested_on": "genes specific for sensitization (BRAK, CTSS, DAPK2, FABP4, HSP27, IL18, HSP90, IL1R2, TPSAB1, CXCR1, DEFB1, DHFR, EHF, IVL, KRT4, MELANA, NGAL, PDZK1IP1, PI3 …)", "assay": "Expression of the other (non-ARE) sensitization-specific genes in EPISKIN reconstructed skin (quantitative RT-PCR)", "format": "cell-based, human"}, "[2]": {"tested_on": "EPISKIN model", "assay": "Sensitizing power: sensitizing potential retested at successive dilutions in the EPISKIN model"}},
  "data": [
    {"smiles": "Oc1ccc(O)cc1", "note": "[Hydroquinone]", "values": [
      {"measurement": "BRAK grade (NUMBER OF GENES)", "setting": "[1]; 10%", "value": "0 (if this expression is lower, the grade is 0)"},
      {"measurement": "CTSS expression compared to control", "setting": "[1]; 10%", "value": 0.8},
      {"measurement": "CTSS grade (NUMBER OF GENES)", "setting": "[1]; 10%", "value": "0 (if this expression is lower, the grade is 0)"},
      {"measurement": "CXCR1 expression compared to control", "setting": "[1]; 10%", "value": 2.2},
      {"measurement": "CXCR1 grade (NUMBER OF GENES)", "setting": "[1]; 10%", "value": "1 (If the expression is greater than 1.3 compared to the control, a grade of 11s given)"},
      {"measurement": "DAPK2 expression compared to control", "setting": "[1]; 10%", "value": 1.2},
      {"measurement": "DAPK2 grade (NUMBER OF GENES)", "setting": "[1]; 10%", "value": "0 (if this expression is lower, the grade is 0)"},
      {"measurement": "DEFB1 expression compared to control", "setting": "[1]; 10%", "value": 1.5},
      {"measurement": "DEFB1 grade (NUMBER OF GENES)", "setting": "[1]; 10%", "value": "1 (If the expression is greater than 1.3 compared to the control, a grade of 11s given)"},
      {"measurement": "DHFR expression compared to control", "setting": "[1]; 10%", "value": 0.7},
      {"measurement": "DHFR grade (NUMBER OF GENES)", "setting": "[1]; 10%", "value": "0 (if this expression is lower, the grade is 0)"},
      {"measurement": "EHF expression compared to control", "setting": "[1]; 10%", "value": 1.2},
      {"measurement": "EHF grade (NUMBER OF GENES)", "setting": "[1]; 10%", "value": "0 (if this expression is lower, the grade is 0)"},
      {"measurement": "FABP4 expression compared to control", "setting": "[1]; 10%", "value": 1.2},
      {"measurement": "FABP4 grade (NUMBER OF GENES)", "setting": "[1]; 10%", "value": "0 (if this expression is lower, the grade is 0)"},
      {"measurement": "HSP27 expression compared to control", "setting": "[1]; 10%", "value": 1.0},
      {"measurement": "HSP27 grade (NUMBER OF GENES)", "setting": "[1]; 10%", "value": "0 (if this expression is lower, the grade is 0)"},
      {"measurement": "HSP90 expression compared to control", "setting": "[1]; 10%", "value": 1.2},
      {"measurement": "HSP90 grade (NUMBER OF GENES)", "setting": "[1]; 10%", "value": "0 (if this expression is lower, the grade is 0)"},
      {"measurement": "IL18 expression compared to control", "setting": "[1]; 10%", "value": 0.9},
      {"measurement": "IL18 grade (NUMBER OF GENES)", "setting": "[1]; 10%", "value": "0 (if this expression is lower, the grade is 0)"},
      {"measurement": "IVL expression compared to control", "setting": "[1]; 10%", "value": 1.8},
      {"measurement": "IVL grade (NUMBER OF GENES)", "setting": "[1]; 10%", "value": "1 (If the expression is greater than 1.3 compared to the control, a grade of 11s given)"},
      {"measurement": "KRT4 expression compared to control", "setting": "[1]; 10%", "value": 1.2},
      {"measurement": "KRT4 grade (NUMBER OF GENES)", "setting": "[1]; 10%", "value": "0 (if this expression is lower, the grade is 0)"},
      {"measurement": "MELANA expression compared to control", "setting": "[1]; 10%", "value": 0.9},
      {"measurement": "MELANA grade (NUMBER OF GENES)", "setting": "[1]; 10%", "value": "0 (if this expression is lower, the grade is 0)"},
      {"measurement": "NGAL expression compared to control", "setting": "[1]; 10%", "value": 2.0},
      {"measurement": "NGAL grade (NUMBER OF GENES)", "setting": "[1]; 10%", "value": "1 (If the expression is greater than 1.3 compared to the control, a grade of 11s given)"},
      {"measurement": "P13 expression compared to control", "setting": "[1]; 10%", "value": 1.4},
      {"measurement": "P13 grade (NUMBER OF GENES)", "setting": "[1]; 10%", "value": "0 (if this expression is lower, the grade is 0)"},
      {"measurement": "PDZK1iP1 expression compared to control", "setting": "[1]; 10%", "value": 1.0},
      {"measurement": "PDZK1iP1 grade (NUMBER OF GENES)", "setting": "[1]; 10%", "value": "0 (if this expression is lower, the grade is 0)"},
      {"measurement": "SENS >1.3 (NUMBER OF GENES)", "setting": "[1]; 10%", "value": 4},
      {"measurement": "SERPINB3 expression compared to control", "setting": "[1]; 10%", "value": 1.1},
      {"measurement": "SERPINB3 grade (NUMBER OF GENES)", "setting": "[1]; 10%", "value": "0 (if this expression is lower, the grade is 0)"},
      {"measurement": "TOTAL SENS (NUMBER OF GENES)", "setting": "[1]; 10%", "value": 4},
      {"measurement": "BRAK expression compared to control", "setting": "[1]; 50%", "value": 0.8},
      {"measurement": "BRAK grade (NUMBER OF GENES)", "setting": "[1]; 50%", "value": "0 (if this expression is lower, the grade is 0)"},
      {"measurement": "CTSS expression compared to control", "setting": "[1]; 50%", "value": 1.6},
      {"measurement": "CTSS grade (NUMBER OF GENES)", "setting": "[1]; 50%", "value": "1 (If the expression is greater than 1.3 compared to the control, a grade of 11s given)"},
      {"measurement": "CXCR1 expression compared to control", "setting": "[1]; 50%", "value": 2.9},
      {"measurement": "CXCR1 grade (NUMBER OF GENES)", "setting": "[1]; 50%", "value": "1 (If the expression is greater than 1.3 compared to the control, a grade of 11s given)"},
      {"measurement": "DAPK2 expression compared to control", "setting": "[1]; 50%", "value": 1.0},
      {"measurement": "DAPK2 grade (NUMBER OF GENES)", "setting": "[1]; 50%", "value": "0 (if this expression is lower, the grade is 0)"},
      {"measurement": "DEFB1 expression compared to control", "setting": "[1]; 50%", "value": 2.0},
      {"measurement": "DEFB1 grade (NUMBER OF GENES)", "setting": "[1]; 50%", "value": "1 (If the expression is greater than 1.3 compared to the control, a grade of 11s given)"},
      {"measurement": "DHFR expression compared to control", "setting": "[1]; 50%", "value": 1.1},
      {"measurement": "DHFR grade (NUMBER OF GENES)", "setting": "[1]; 50%", "value": "0 (if this expression is lower, the grade is 0)"},
      {"measurement": "EHF expression compared to control", "setting": "[1]; 50%", "value": 1.5},
      {"measurement": "EHF grade (NUMBER OF GENES)", "setting": "[1]; 50%", "value": "1 (If the expression is greater than 1.3 compared to the control, a grade of 11s given)"},
      {"measurement": "FABP4 expression compared to control", "setting": "[1]; 50%", "value": 1.4},
      {"measurement": "FABP4 grade (NUMBER OF GENES)", "setting": "[1]; 50%", "value": "1 (If the expression is greater than 1.3 compared to the control, a grade of 11s given)"},
      {"measurement": "HSP27 expression compared to control", "setting": "[1]; 50%", "value": 1.3},
      {"measurement": "HSP27 grade (NUMBER OF GENES)", "setting": "[1]; 50%", "value": "0 (if this expression is lower, the grade is 0)"},
      {"measurement": "HSP90 expression compared to control", "setting": "[1]; 50%", "value": 1.8},
      {"measurement": "HSP90 grade (NUMBER OF GENES)", "setting": "[1]; 50%", "value": "1 (If the expression is greater than 1.3 compared to the control, a grade of 11s given)"},
      {"measurement": "IL18 expression compared to control", "setting": "[1]; 50%", "value": 0.9},
      {"measurement": "IL18 grade (NUMBER OF GENES)", "setting": "[1]; 50%", "value": "0 (if this expression is lower, the grade is 0)"},
      {"measurement": "IVL expression compared to control", "setting": "[1]; 50%", "value": 2.6},
      {"measurement": "IVL grade (NUMBER OF GENES)", "setting": "[1]; 50%", "value": "1 (If the expression is greater than 1.3 compared to the control, a grade of 11s given)"},
      {"measurement": "KRT4 expression compared to control", "setting": "[1]; 50%", "value": 1.1},
      {"measurement": "KRT4 grade (NUMBER OF GENES)", "setting": "[1]; 50%", "value": "0 (if this expression is lower, the grade is 0)"},
      {"measurement": "MELANA expression compared to control", "setting": "[1]; 50%", "value": 1.6},
      {"measurement": "MELANA grade (NUMBER OF GENES)", "setting": "[1]; 50%", "value": "1 (If the expression is greater than 1.3 compared to the control, a grade of 11s given)"},
      {"measurement": "NGAL expression compared to control", "setting": "[1]; 50%", "value": 1.3},
      {"measurement": "NGAL grade (NUMBER OF GENES)", "setting": "[1]; 50%", "value": "0 (if this expression is lower, the grade is 0)"},
      {"measurement": "P13 expression compared to control", "setting": "[1]; 50%", "value": 1.7},
      {"measurement": "P13 grade (NUMBER OF GENES)", "setting": "[1]; 50%", "value": "1 (If the expression is greater than 1.3 compared to the control, a grade of 11s given)"},
      {"measurement": "PDZK1iP1 expression compared to control", "setting": "[1]; 50%", "value": 1.0},
      {"measurement": "PDZK1iP1 grade (NUMBER OF GENES)", "setting": "[1]; 50%", "value": "0 (if this expression is lower, the grade is 0)"},
      {"measurement": "SENS >1.3 (NUMBER OF GENES)", "setting": "[1]; 50%", "value": 11},
      {"measurement": "SERPINB3 expression compared to control", "setting": "[1]; 50%", "value": 1.1},
      {"measurement": "SERPINB3 grade (NUMBER OF GENES)", "setting": "[1]; 50%", "value": "0 (if this expression is lower, the grade is 0)"},
      {"measurement": "TOTAL SENS (NUMBER OF GENES)", "setting": "[1]; 50%", "value": 11},
      {"measurement": "sensitizing potential (Sensitizing / Non-sensitizing)", "setting": "[2]; 1%", "value": "Sensitizing"},
      {"measurement": "sensitizing potential (Sensitizing / Non-sensitizing)", "setting": "[2]; 10%", "value": "Sensitizing"},
      {"measurement": "sensitizing potential (Sensitizing / Non-sensitizing)", "setting": "[2]; 50%", "value": "Sensitizing"},
      {"measurement": "sensitizing power (class)", "setting": "[2]; from successive dilutions 50%, 10%, 1%, 0.1%", "value": "STRONG"}
    ]}
  ]
}
